Common to all, as to assay: DTP human tumour cell line panel, 48 h
The test system of assay [1] is BT-549 breast.
Assay [2] deals with OVCAR-3 ovarian.
The subject of assay [3] is COLO 205 colon.
Assay [4] has as its system UACC-62 melanoma.
For assay [5], the system named is SN12C renal.
Assay [6] has as its system CAKI-1 renal.
Assay [7] concerns DU-145 prostate.
The subject of assay [8] is OVCAR-8 ovarian.
The subject of assay [9] is K-562 leukemia.
Assay [10] relates to HOP-62 NSCLC.

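All cell lines were grown in 96-well plates and treated with compound for 48 hours. GI50 marks 50% less growth. Definition used: TGI = concentration required for complete inhibition of growth.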

For orientation: GI50 means the concentration that inhibits growth by half. One may read the TGI as the concentration at which net growth stops. A higher TGI goes with less potent growth arrest.

Regarding `N#CC1C(N)=NNC12Nc1ccccc1S2` (configuration not stated), the GI50 in assay [1] was 18.7 µM; in [2] it was 10.3 µM; in assay [3] it was 26.5 µM; in assay [4], 12.2 µM; in assay [5], 24.4 µM; in [6], 23.4 µM. Also, the GI50 in assay [7] is 15.6 µM; in [8] it was 13 µM; in assay [9], 14.1 µM; in assay [10], 30.3 µM. Further, the TGI in assay [1] was 57.4 µM; in assay [2], 43.9 µM; in assay [3] it was 82.5 µM; in assay [4], 30.3 µM; in assay [5], 60.2 µM; in assay [6], over 100 µM. Besides, the TGI was 55.3 µM in [7], 61.1 µM in [8], 34.7 µM in [9] and over 100 µM in assay [10].

For the compound `Cn1c(C(=O)c2cccc3ccccc23)nc2ccccc21`, the GI50 in assay [1] is over 100 µM; in assay [2] it was over 100 µM; in [3] it was over 100 µM; in assay [4], over 100 µM; in assay [5], over 100 µM; in assay [6], 61 µM. Moreover, the GI50 in assay [7], in assay [8], in [9] and in assay [10] was over 100 µM each time. Also, the TGI in assay [1], in assay [2], in assay [3], in assay [4], in [5] and in assay [6] was over 100 µM throughout. Further, the TGI in [7], in assay [8], in assay [9] and in assay [10] was over 100 µM throughout.

As for `Cc1cc(O)c2c3c(ccc2c1)C(=O)c1c(O)cccc1C3=O`, the concentration for total growth inhibition (TGI) in assay [1] was over 100 µM; in [2], 3.45 µM; in assay [3] it was 12.4 µM; in assay [4], 13.6 µM; in assay [5], over 100 µM; in assay [6], over 100 µM. Also, the TGI in [7], in assay [8], in assay [9] and in [10] was over 100 µM in each case.

As to `Nc1nc(-c2ccc(Cl)cc2)nc2c1sc(=S)n2-c1ccccc1`, the GI50 in assay [1] is 6.5 µM; in assay [2], 2.75 µM; in assay [3], 7.44 µM; in assay [4], 4.32 µM; in assay [5] it was 6.34 µM; in assay [6], 9.17 µM. Moreover, the GI50 in [7] was 4.36 µM; in [8], 5.16 µM; in [9], 4.75 µM; in assay [10] it was 3.4 µM. The TGI in [1] was over 100 µM; in assay [2], 7.64 µM; in assay [3], over 100 µM; in [4], 22.6 µM; in [5] it was 48.1 µM; in [6], 84.5 µM. Besides, the total growth inhibition concentration (TGI) in assay [7] was 18.9 µM; in assay [8], over 100 µM; in [9] it was over 100 µM; in [10], 11.7 µM.

Consider `Fc1ccc2nc(-c3nc(-c4ccccc4)n4ccccc34)[nH]c2c1`, for which the GI50 in [1] was 2.76 µM; in assay [2], 4.29 µM; in [3], 3.42 µM; in [4], 1.96 µM; in [5], 4.5 µM; in [6] it was 3.38 µM. Also, the GI50 in assay [7] is 5.56 µM; in [8], 1.87 µM; in assay [9] it was 3.47 µM; in assay [10], 1.94 µM. Besides, the TGI came to 7.61 µM in [1]; 15.1 µM in assay [2]; 13.1 µM in assay [3]; 4.96 µM in [4]; 17.9 µM in assay [5]; 15.1 µM in [6]. In addition, the TGI is 18.1 µM in [7], 4.1 µM in assay [8], over 100 µM in assay [9] and 3.84 µM in assay [10].

Take `CC(C)(C)c1cc(C(=O)O)c2c(c1)C(=O)OC2(c1ccccc1)c1ccccc1C(=O)O` (configuration not stated): the GI50 in [1] and in assay [7] was over 100 µM in each case. Also, the TGI in assay [1], in assay [2], in assay [3], in assay [4], in assay [5] and in assay [6] was over 100 µM in each case. The concentration for total growth inhibition (TGI) in assay [7], in [8], in assay [9] and in [10] was over 100 µM throughout.

Turning to `N#Cc1cccc(Nc2ncc(-c3ccccc3)o2)c1`, the GI50 in assay [1] was over 20.7 µM; in assay [2], 8.71 µM; in assay [3] it was 14.8 µM; in [4] it was 13.1 µM; in assay [5], 24.2 µM; in [6], 8.44 µM. Further, the GI50 in assay [7] was 16 µM; in [8], 16.7 µM; in assay [9] it was over 25 µM; in [10], 6.69 µM. Further, the TGI in assay [1], in [2], in assay [3], in [4], in assay [5] and in assay [6] was over 25 µM in each case. Further, the TGI in assay [7] is over 25 µM; in [8], over 25 µM; in assay [9], over 25 µM; in assay [10] it was over 17.8 µM.

As for `O=S(=O)(O)c1ccc2cc3nn(-c4ccc(/C=C/c5ccc(-n6nc7cc8ccc(S(=O)(=O)O)cc8cc7n6)cc5S(=O)(=O)O)c(S(=O)(=O)O)c4)nc3cc2c1`, the GI50 in [1] was over 100 µM; in assay [2], over 100 µM; in assay [3], 74 µM; in assay [4], 34.1 µM; in assay [5], 67.8 µM; in [6] it was over 100 µM. Further, the GI50 in assay [7] is over 100 µM; in assay [8], over 100 µM; in [9] it was 61 µM; in assay [10] it was over 100 µM. Moreover, the concentration for total growth inhibition (TGI) in assay [1], in [2], in assay [3], in [4], in assay [5] and in [6] was over 100 µM in each case. In addition, the TGI in assay [7], in assay [8], in [9] and in assay [10] was over 100 µM each time.

The record behind these values is PubChem BioAssay (NCI).
